Data published in publication PMC10257182, “Discovery of senolytics using machine learning” (Nature Communications, 2023).
Read-outs that look alike come from different tables or passages of the source.

Tested on: non-senescent control IMR90 ER:RAS cells
Experiment: Nuclei count (Hoechst, high content imaging) senolytic assay, OIS model, non-senescent control cells
Format: cell-based, human
Settings: Homo sapiens
Procedure, shortened: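 IMR90 ER:RAS (p14), ±4-OHT 100 nM; cpd 10 nM–10 μM, 10-pt […], 72 h, n=3. Fix formaldehyde, Triton X-100, Hoechst 2 μg/ml final. Readout: imaged nuclei count vs untreated; ouabain positive control.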

[1] = IMR-90, 72 h, Control, log (dose) [M] -5, 72 h, mean n=3 (Fig 3C), read-out: Mean % Cell Survival
[2] = IMR-90, 72 h, Control, log (dose) [M] -5.33, 72 h, mean n=3 (Fig 3C), read-out: Mean % Cell Survival
[3] = IMR-90, 72 h, Control, log (dose) [M] -5.66, 72 h, mean n=3 (Fig 3C), read-out: Mean % Cell Survival
[4] = IMR-90, 72 h, Control, log (dose) [M] -6, 72 h, mean n=3 (Fig 3C), read-out: Mean % Cell Survival
[5] = IMR-90, 72 h, Control, log (dose) [M] -6.33, 72 h, mean n=3 (Fig 3C), read-out: Mean % Cell Survival
[6] = IMR-90, 72 h, Control, log (dose) [M] -6.66, 72 h, mean n=3 (Fig 3C), read-out: Mean % Cell Survival
[7] = IMR-90, 72 h, Control, log (dose) [M] -7, 72 h, mean n=3 (Fig 3C), read-out: Mean % Cell Survival
[8] = IMR-90, 72 h, Control, log (dose) [M] -7.33, 72 h, mean n=3 (Fig 3C), read-out: Mean % Cell Survival
[9] = IMR-90, 72 h, Control, log (dose) [M] -7.66, 72 h, mean n=3 (Fig 3C), read-out: Mean % Cell Survival
[10] = IMR-90, 72 h, Control, log (dose) [M] -8, 72 h, mean n=3 (Fig 3C), read-out: Mean % Cell Survival
[11] = IMR-90, Control, log (dose) [M] -5.33, read-out: % Cell Survival
[12] = IMR-90, Control, log (dose) [M] -5.66, read-out: % Cell Survival
[13] = IMR-90, Control, log (dose) [M] -6, read-out: % Cell Survival
[14] = IMR-90, Control, log (dose) [M] -6.66, read-out: % Cell Survival
[15] = IMR-90, Control, log (dose) [M] -7, read-out: % Cell Survival
[16] = IMR-90, Control, log (dose) [M] -7.33, read-out: % Cell Survival
[17] = IMR-90, Control, log (dose) [M] -8, read-out: % Cell Survival
[18] = IMR-90, Control cells, log (dose) [M] -5.66, individual replicates, SUP FIG 4C, read-out: % Cell Survival
[19] = IMR-90, Control cells, log (dose) [M] -6.33, individual replicates, SUP FIG 4C, read-out: % Cell Survival
[20] = IMR-90, Control cells, log (dose) [M] -7.33, individual replicates, SUP FIG 4C, read-out: % Cell Survival
[21] = IMR-90, Control cells, log (dose) [M] -7.66, individual replicates, SUP FIG 4C, read-out: % Cell Survival
[22] = IMR-90, Control cells, log (dose) [M] -8, individual replicates, SUP FIG 4C, read-out: % Cell Survival
[23] = IMR-90, Control, log (dose) [M] -5, read-out: % Cell Survival
[24] = IMR-90, Control, log (dose) [M] -7.66, read-out: % Cell Survival
[25] = IMR-90, Control cells, log (dose) [M] -5, individual replicates, SUP FIG 4C, read-out: % Cell Survival
[26] = IMR-90, Control cells, log (dose) [M] -5.33, individual replicates, SUP FIG 4C, read-out: % Cell Survival
[27] = IMR-90, Control cells, log (dose) [M] -7, individual replicates, SUP FIG 4C, read-out: % Cell Survival
[28] = IMR-90, Control, log (dose) [M] -6.33, read-out: % Cell Survival
[29] = IMR-90, Control cells, log (dose) [M] -6.66, individual replicates, SUP FIG 4C, read-out: % Cell Survival

| Structure (SMILES) | viability at 10 µM [1] | viability at 4.677 µM [2] | viability at 2.188 µM [3] | viability at 1 µM [4] | viability at 0.4677 µM [5] | viability at 0.2188 µM [6] | viability at 0.1 µM [7] | viability at 0.04677 µM [8] | viability at 0.02188 µM [9] | viability at 0.01 µM [10] | viability at 4.68 µM [11] | viability at 2.19 µM [12] | viability at 0.219 µM [14] | viability at 0.1 µM [15] | viability at 0.04677 µM [16] | viability at 0.01 µM [17] | viability at 0.4677 µM [19] | viability at 0.01 µM [22] | viability at 10 µM [23] | viability at 0.0219 µM [24] | also measured |
| --- | --- | --- | --- | --- | --- | --- | --- | --- | --- | --- | --- | --- | --- | --- | --- | --- | --- | --- | --- | --- | --- |
| Cc1cc2c(C(C)C)c(O)c(O)c(C=O)c2c(O)c1-c1c(C)cc2c(C(C)C)c(O)c(O)c(C=O)c2c1O [Gossypol, gossypol] | 86.7% | 131% | 118% | 120% | 135% | 146% | 126% | 143% | 121% | 109% | 113% | 99.8% | 94.1% | 94.9% | 101% | 104% | – | – | – | – | viability at 1 µM [13]: 101% |
| O=c1c(O)c(-c2ccc(O)cc2)oc2c(O)c(O)cc(O)c12 [Herbacetin, herbacetin] | 100% | 108% | 97.9% | 74.4% | 94.9% | 93.5% | 94.6% | 102% | 109% | 107% | 96.8% | 91.6% | 93.8% | 91.7% | 92.8% | 100% | 105% | 113% | 97.9% | 98.3% | viability at 2.188 µM [18]: 94.1%; viability at 0.04677 µM [20]: 100%; viability at 0.02188 µM [21]: 120% |
| O=c1c(O)c(-c2ccc(O)cc2O)oc2cc(O)cc(O)c12 [Morin, morin] | 95.2% | 93.9% | 96.1% | 81.3% | 91.6% | 86.4% | 91.3% | 86.7% | 91.5% | 99.5% | – | 93.3% | 106% | 91.9% | – | 97.2% | 88.8% | 103% | 102% | 98.9% | viability at 10 µM [25]: 88.7%; viability at 4.677 µM [26]: 93.4%; viability at 2.188 µM [18]: 102%; viability at 0.1 µM [27]: 98.5%; viability at 0.468 µM [28]: 110% |
| Cc1cnc(C(=O)N[C@H]2CCCCC/C=C\[C@@H]3C[C@@]3(C(=O)NS(=O)(=O)C3CC3)NC(=O)[C@@H]3C[C@@H](Oc4nc5ccccc5c5ccccc45)CN3C2=O)cn1 [Paritaprevir, paritaprevir, reference compound] | 95% | 90.1% | 102% | 78.8% | 87.9% | 82.7% | 81.5% | 87.1% | 88.3% | 101% | 96.2% | 99.1% | 99.6% | 94.1% | 94.2% | 101% | 89.5% | 102% | 96% | 97% | viability at 10 µM [25]: 93.1%; viability at 4.677 µM [26]: 86.6%; viability at 0.2188 µM [29]: 83.1%; viability at 0.1 µM [27]: 73.5%; viability at 0.04677 µM [20]: 83%; viability at 0.02188 µM [21]: 88%; viability at 1 µM [13]: 96.6%; viability at 0.468 µM [28]: 97.8% |
| CO[C@H]1C[C@@H]2CC[C@@H](C)[C@@](O)(O2)C(=O)C(=O)N2CCCC[C@H]2C(=O)O[C@H]([C@H](C)C[C@@H]2CC[C@@H](O)[C@H](OC)C2)CC(=O)[C@H](C)/C=C(\C)[C@@H](O)[C@@H](OC)C(=O)[C@H](C)C[C@H](C)/C=C/C=C/C=C/1C [Rapamycin, rapamycin, reference compound] | 98.8% | 100% | 89.2% | 83.1% | 85.7% | 86.6% | 92.6% | 86.3% | 95.8% | 100% | – | 80.5% | – | – | – | – | 77.2% | 109% | – | – | viability at 10 µM [25]: 91.9%; viability at 0.2188 µM [29]: 83%; viability at 0.1 µM [27]: 91%; viability at 0.04677 µM [20]: 89.7%; viability at 0.02188 µM [21]: 93% |
| CO[C@H]1C[C@@H]2CC[C@@H](C)[C@@](O)(O2)C(=O)C(=O)N2CCCC[C@H]2C(=O)O[C@H]([C@H](C)C[C@@H]2CC[C@@H](OP(C)(C)=O)[C@H](OC)C2)CC(=O)[C@H](C)/C=C(\C)[C@@H](O)[C@@H](OC)C(=O)[C@H](C)C[C@H](C)/C=C/C=C/C=C/1C [Ridaforolimus, ridaforolimus, reference compound] | 75.2% | 82.6% | 82.3% | 77.9% | 87.6% | 91.5% | 77.4% | 106% | 88.9% | 92.5% | – | 107% | 109% | 97% | 115% | 113% | – | – | 119% | 113% | viability at 0.468 µM [28]: 105% |
| O=c1cc(-c2ccc(O)cc2)oc2cc(O)c(O)c(O)c12 [Scutellarein, scutellarein] | 97.3% | 95.7% | 88.9% | 88.2% | 95.4% | 109% | 118% | 130% | 117% | 121% | 101% | 102% | 107% | 107% | 102% | 107% | – | – | 112% | 99.8% | viability at 1 µM [13]: 108%; viability at 0.468 µM [28]: 101% |
